In the oligonucleotide strings, read from the 5' end, every base follows the letter of its sugar. An asterisk marks phosphorothioate; unmarked linkages are phosphodiester. Other units and linkages are bracketed, terminal groups are in braces. A string of capitals states the bases alone. e = 2'-O-(2-methoxyethyl) (MOE); [5mC] = 5-methylcytosine; d = 2'-deoxy (DNA); r = 2'-OH (RNA)
Assays:
Format in all cases: cell-based
[1] = system: human apolipoprotein B mRNA; test: Apolipoprotein B mRNA in primary human hepatocytes, real-time PCR
Description: In accordance with the present invention, antisense oligonucleotides targeted to human apolipoprotein B were tested in dose response studies in primary human hepatocytes. Pre-plated primary human hepatocytes were purchased from Invitro Technologies (Baltimore, Md.). Cells were cultured in high-glucose DMEM (Invitrogen Corporation, Carlsbad, Calif.) supplemented with 10% fetal bovine serum (Invitrogen Corporation, Carlsbad, Calif.), 100 units/mL and 100 μg/mL streptomycin (Invitrogen Corporation, Carlsbad, Calif.).
Human primary hepatocytes were treated with ISIS 301012 (SEQ ID NO: 247) at 10, 50, 150 or 300 nM. Untreated cells and cells treated with the scrambled control oligonucleotide ISIS 113529 ([…], SEQ ID NO: 859) served as two groups of control cells. ISIS 113529 is a chimeric oligonucleotide (“gapmer”) 20 nucleotides in length, composed of a central “gap” region consisting of ten 2′-deoxynucleotides, which is flanked on both sides (5′ and 3′ directions) by five-nucleotide “wings”. The wings are composed of 2′-methoxyethyl (2′-MOE)nucleotides. The internucleoside (backbone) linkages are phosphorothioate (P═S) throughout the oligonucleotide. All cytidines are 5-methylcytidines.
(§1) Oligonucleotides were introduced into cells through LIPOFECTIN-mediated transfection as described by other examples herein. Cells were harvested both 24 and 48 hours after treatment with oligonucleotide, and both RNA and protein were isolated. Additionally, the culture media from treated cells was collected for ELISA analysis of apolipoprotein B protein secretion.
Apolipoprotein B mRNA expression was determined by real-time PCR of RNA samples as described by other examples herein. Each result represents 6 experiments.
(§2) An additional experiment was performed to test the effects of ISIS 271009 (SEQ ID NO: 319), ISIS 281625 (SEQ ID NO: 224) and ISIS 301027 (SEQ ID NO: 262) on human apolipoprotein B mRNA in human primary hepatocytes. Cells were cultured as described herein and treated with 5, 10, 50 or 150 nM of ISIS 271009, ISIS 281625 or ISIS 301027 for a period of 24 hours. The control oligonucleotides ISIS 13650 (SEQ ID NO: 806) and ISIS 113529 (SEQ ID NO: 859) were used at 50 or 150 nM. Human apolipoprotein B mRNA expression was evaluated by real-time PCR as described by other examples herein. Apolipoprotein B protein secreted into the cultured cell media was measured in the samples treated with 50 and 150 nM of oligonucleotide, using a target protein specific ELISA kit (ALerCHEK Inc., Portland, Me.).

[2] = system: apolipoprotein B protein; test: Apolipoprotein B protein secreted from primary human hepatocytes, ELISA; conditions: for % Inhibition of apolipoprotein B protein secretion: 24 hours
Description: as §1
Apolipoprotein secreted from into the cultured cell media was measured in the samples treated with 50 and 150 nM of oligonucleotide, using a target protein specific ELISA kit (ALerCHEK Inc., Portland, Me.). Each result represents 3 experiments.
as §2

[3] = system: human apolipoprotein B mRNA; test: Inhibition of human apolipoprotein B mRNA levels in HepG2 cells, quantitative real-time PCR
How it was run: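 HepG2 cells at 80% confluency were transfected with antisense oligonucleotide using 3.75 μg/mL Lipofectin in Opti-MEM for 4-7 h and harvested 16-24 h after treatment. Apolipoprotein B mRNA was measured by real-time RT-PCR and normalized to GAPDH or RiboGreen total RNA. Percent inhibition came from untreated-control standard curves.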

[4] = system: human apolipoprotein B mRNA; test: Inhibition of apolipoprotein B mRNA by dsRNAs in HepG2 cells; conditions: 150 nM with 3.75 μg/mL LIPOFECTIN
Description: In accordance with the present invention, a series of nucleic acid duplexes comprising the antisense compounds of the present invention and their complements were designed to target apolipoprotein B and are shown in Table 42. All compounds in Table 42 are oligoribonucleotides 20 nucleotides in length with phosphodiester internucleoside linkages (backbones) throughout the compound. The compounds were prepared with blunt ends. […] These sequences are shown to contain uracil (U) but one of skill in the art will appreciate that uracil (U) is generally replaced by thymine (T) in DNA sequences. “Targer site” indicates the first (5′-most) nucleotide number on the particular target sequence to which the compound binds. A subset of the compounds in Table 42 are the RNA equivalents of DNA antisense oligonucleotides described herein, and, where applicable, this is noted by the ISIS # of the DNA oligonucleotide in the column “RNA equivalent of ISIS #”.
The dsRNA compounds in Table 42 were tested for their effects on human apolipoprotein mRNA in HepG2 cells. HepG2 cells were treated with 100 nM of dsRNA compounds mixed with 5 μg/mL LIPOFECTIN (Invitrogen Corporation, Carlsbad, Calif.) for a period of 16 hours. In the same experiment, HepG2 cells were also treated with 150 nM of subset of the antisense oligonucleotides described herein mixed with 3.75 μg/mL LIPOFECTIN; these compounds are listed in Table 43. Control oligonucleotides included ISIS 18078 ([…], SEQ ID NO: 888). ISIS 18078 is a chimeric oligonucleotide (“gapmer”) 20 nucleotides in length, composed of a central “gap” region consisting of 9 2′-deoxynucleotides, which is flanked on the 5′ and 3′ ends by a five-nucleotide “wing” and a six-nucleotide “wing”, respectively. The wings are composed of 2′-methoxyethyl (2′-MOE)nucleotides. The internucleoside (backbone) linkages are phosphorothioate (P═S) throughout the oligonucleotide. All cytidines are 5-methylcytidines. The duplex of ISIS 263188 ([…], SEQ ID NO: 889) and its complement was also used as a control. ISIS 263188 is an oligoribonucleotide 21 nucleotides in length with the 2 nucleotides on the 3′ end being oligodeoxyribonucleotides (TT) and with phosphodiester internucleoside linkages (backbones) throughout the compound.
Cells were treated for 4 hours, after which human apolipoprotein B mRNA expression was measured as described by examples herein. Results were normalized to untreated control cells, which were not treated with LIPOFECTIN or oligonucleotide.

[5] = system: human apolipoprotein(a) mRNA; test: Apolipoprotein(a) mRNA expression in primary human hepatocytes, real-time PCR; conditions: human primary hepatocytes; 5, 10, 50 or 150 nM, 24 hours
Description: Primary human hepatocytes (InVitro Technologies, Baltimore, Md.), cultured and transfected as described herein, were treated with 5, 10, 50 or 150 nM of ISIS 271009 (SEQ ID NO: 319), 281625 (SEQ ID NO: 224), 301012 (SEQ ID NO: 247) or 301027 (SEQ ID NO: 262). Cells were also treated with 50 or 150 nM of the control oligonucleotides ISIS 113529 (SEQ ID NO: 859) or ISIS 13650 (SEQ ID NO: 806). Untreated cells served as a control. Following 24 hours of oligonucleotide treatment, apolipoprotein(a) mRNA expression was measured by quantitative real-time PCR as described in other examples herein.
Probes and primers to human apolipoprotein(a) were designed to hybridize to a human apolipoprotein(a) sequence, using published sequence information (GenBank accession number NM_005577.1, incorporated herein as SEQ ID NO: 860). For human apolipoprotein(a) the PCR primers were: […]
forward primer: […] (SEQ ID NO: 861)
reverse primer: TGCGTCTGAGCATTGCGT (SEQ ID NO: 862) and the PCR probe was: FAM-[…]-TAMRA (SEQ ID NO: 863) where FAM is the fluorescent dye and TAMRA is the quencher dye.
Data are the average of three experiments and are expressed as percent inhibition relative to untreated controls.

[6] = system: Cynomolgous monkey apolipoprotein B mRNA; test: Apolipoprotein B mRNA in primary Cynomolgous monkey hepatocytes, real-time PCR; conditions: Cynomolgous monkey primary hepatocytes; 10, 50 and 150 nM, 24 hours
Description: Antisense inhibition by ISIS 301012 was compared to that of ISIS 326358, which is a perfect match to the Cynomolgous monkey apolipoprotein B sequence to which ISIS 301012 hybridizes. The compounds were analyzed for their effect on Cynomolgous monkey apolipoprotein B mRNA levels in primary Cynomolgous monkey hepatocytes purchased from In Vitro Technologies ([…].). Pre-plated primary Cynonomolgous monkey hepatocytes were purchased from InVitro Technologies (Baltimore, Md.). Cells were cultured in high-glucose DMEM (Invitrogen Corporation, Carlsbad, Calif.) supplemented with 10% fetal bovine serum (Invitrogen Corporation, Carlsbad, Calif.), 100 units/mL and 100 μg/mL streptomycin (Invitrogen Corporation, Carlsbad, Calif.).
Primary Cynomolgous monkey hepatocytes were treated with 10, 50, 150 or 300 nM of antisense oligonucleotides for 48 hours. ISIS 113529 (SEQ ID NO: 859) was used as a control oligonucleotide. Untreated cells also served as a control. Cynomolgous monkey apolipoprotein B mRNA levels were quantitated by real-time PCR using the human apolipoprotein B and GAPDH primers and probes described by other examples herein. The results, shown in Table 44, are the average of 6 experiments and are expressed as percent inhibition of apolipoprotein B mRNA normalized to untreated control cells.
In a further embodiment of the invention, antisense inhibition by ISIS 281625 was compared to that by ISIS 315089, which is a perfect match to the Cynomolgous monkey apolipoprotein B sequence to which ISIS 281625 hybridizes. Primary Cynomolgous monkey hepatocytes, cultured as described herein, were treated with 10, 50, 150 or 300 nM of ISIS 315089 or ISIS 281625 for 24 hours. Cells were treated with the control oligonucleotide ISIS 13650 (SEQ ID NO: 806) at 150 and 300 nM or ISIS 113529 (SEQ ID NO: 859) at 300 nM. Untreated cells also served as a control. Cynomolgous monkey apolipoprotein B mRNA levels in primary Cynomolgous monkey hepatocytes was quantitated using real-time PCR with human primers and probe as described by other examples herein. The results, shown in Table 46, are the average of 3 experiments and are expressed as percent inhibition of apolipoprotein B mRNA normalized to untreated control cells.
ISIS 271009 (SEQ ID NO: 319) and ISIS 301027 (SEQ ID NO: 262) were also tested for their effects on apolipoprotein B mRNA and protein expression in Cynomolgous primary hepatoctyes. Cells, cultured as described herein, were treated with 10, 50 and 150 nM of ISIS 271009 or ISIS 301027 for 24 hours. Cells were treated with the control oligonucleotide ISIS 113529 (SEQ ID NO: 859) at 150 nM. Untreated cells also served as a control. Cynomolgous monkey apolipoprotein B mRNA levels in primary Cynomolgous monkey hepatocytes was quantitated using real-time PCR with human primers and probe as described by other examples herein. The results, shown in Table 48, are the average of 2 experiments and are expressed as percent inhibition of apolipoprotein B mRNA normalized to untreated control cells.

Substance	% Inhibition of apolipoprotein B mRNA expression ([1]; 50 nM, 24 hours (Table 37))	% Inhibition of apolipoprotein B mRNA expression ([1]; 150 nM, 24 hours (Table 37))	% Inhibition of apolipoprotein B protein secretion ([2]; 150 nM, "+" = increased)	% Inhibition of apolipoprotein B mRNA [4]	also measured
CTCTTACTGTGCTGTGGACA (antisense e[5mC]*eT*e[5mC]*eT*eT*dA*d[5mC]*dT*dG*dT*dG*d[5mC]*dT*dG*dT*eG*eG*eA*e[5mC]*eA) [ISIS 113529, reference compound]	0%	14%	+1%	–	–
301031 (eA*eA*eG*eG*e[5mC]*dT*dG*dG*d[5mC]*dT*d[5mC]*dA*d[5mC]*dT*dG*eT*eA*eT*eG*eG; antisense) [compound 301031]	–	–	–	73%	% INHIB (inhibition of human apolipoprotein B mRNA levels) ([3]; HepG2 cells treated with 150 nM of compound, averages from two experiments, quantitative real-time PCR): 90%; % inhibition 37 nM ([3]; Table 19 dose response, HepG2 cells, 37 nM, normalized to untreated control): 61%; % inhibition 75 nM ([3]; Table 19 dose response, HepG2 cells, 75 nM, normalized to untreated control): 82%; % inhibition 150 nM ([3]; Table 19 dose response, HepG2 cells, 150 nM, normalized to untreated control): 92%; % inhibition 300 nM ([3]; Table 19 dose response, HepG2 cells, 300 nM, normalized to untreated control): 96%
18078 (antisense eG*eT*eG*e[5mC]*eG*d[5mC]*dG*d[5mC]*dG*dA*dG*d[5mC]*d[5mC]*d[5mC]*eG*eA*eA*eA*eT*e[5mC]) [compound 18078]	–	–	–	13%	–
ISIS 13650: SEQ ID NO: 806, control oligonucleotide (antisense TCCCGCCTGTGACATGCATT; listed as DNA, chemistry not given here) [reference compound]	38%	26%	+18%	–	–
GCCTCAGTCTGCTTCGCGCC (2'-MOE gapmer, further chemistry not given here) [ISIS 271009]	52%	81%	32%	–	% Inhibition of apolipoprotein B mRNA expression ([1]; 5 nM, 24 hours, "+" = expression increased): +4%; % Inhibition of apolipoprotein B mRNA expression ([1]; 10 nM, 24 hours (Table 37)): 5%; apolipoprotein B mRNA expression ([1]; 5, 10, 50 or 150 nM, 24 hours): inhibit apolipoprotein B mRNA expression in a dose-dependent manner; % Inhibition of apolipoprotein B protein secretion ([2]; 50 nM): 17%; secretion of apolipoprotein B protein from cells (ELISA) ([2]; 50 and 150 nM): inhibit the secretion of apolipoprotein B protein from cells in a dose-dependent manner; expression of apolipoprotein(a) mRNA [5]: inhibited apolipoprotein(a) expression at the highest dose; inhibition of apolipoprotein B mRNA expression [6]: in a dose-dependent manner
263188 (rCrUrUrCrUrGrGrCrArUrCrCrGrGrUrUrUrArGdTdT; siRNA) [compound 263188]	–	–	–	26%	–
